Data taken from patent US4536493A, “Saturated aminocyclitol derivatives, their preparation and medicaments containing these compounds” (Baker Aktiengesellschaft, priority 1981, dated 1985).

Target: T1, saccharase from pig small intestinal mucosa (Sus scrofa, UniProt P56729)
T1 construct: sucrase and isomaltase chains cleaved from one SI precursor
Assay: Saccharase inhibition test in vitro
Assay type: biochemical
Conditions: solubilised saccharase 0.12 SU, sucrose substrate, 0.1 M sodium maleate buffer pH 6.0, 35° C.; 1 SIU = amount inhibiting two saccharase units by 50%
Experimental: A saccharase inhibitor unit (SIU) is defined as the amount of inhibitor which inhibits two saccharase units to the extent of 50%. A saccharase unit (SU) is the amount of enzyme which cleaves 1 μmol of sucrose into glucose and fructose in one minute under the test conditions given below. […] To perform the tests, 0.05 ml of a solution of saccharase^(1) which had been set at 0.12 SU was mixed with 0 to 20 μg of inhibitor or 0 to 20 μl of the solution for testing and made up with 0.1 M sodium maleate buffer of pH 6.0 or 0.1 ml. The mixture was equilibrated for 10 minutes at 35° C. and then mixed with 0.1 ml of a 0.05 M solution of sucrose in 0.1 M sodium maleate buffer of pH 6.0 pre-warmed to 35° C. After incubation for 20 minutes at 35° C., the saccharase reaction was stopped by addition of 1 ml of glucose oxidase reagent^(2), and incubation was continued for 30 minutes at 35° C. Thereafter 1 ml of 50% strength H2 SO4 was added and measured at 545 nm against an appropriate blank. For evaluation, the percentage inhibition of the saccharase employed is calculated and, with the aid of a glucose calibration curve, converted from the 50% inhibition point to SIU/g or SIU/liter. (1) Solubilised saccharase from pig small intestinal mucosa according to B. Borgstrom, A. Dahlquist, Acta Chem. Scand. 12, (1958), page 1997. Diluted with 0.1 M sodium maleate buffer of pH 6.0 to the appropriate SU content. (2) The glucose oxidase reagent is prepared by dissolving 2 mg of glucose oxidase (Boehringer No. 15423) in 100 ml of 0.565 M tris-HCl buffer of pH 7.0 and subsequently adding 1 ml of detergent solution (2 g of Triton X 100+8 g of 95% strength ethanol AR), 1 ml of dianisidine solution (260 mg of o-dianisidine 0.2 HCl in 20 ml of H2 O) and 0.5 ml of 0.1% strength aqueous peroxidase solution (Boehringer No. 15302).

T1 sequence (P56729 with tags, fused parts or gaps): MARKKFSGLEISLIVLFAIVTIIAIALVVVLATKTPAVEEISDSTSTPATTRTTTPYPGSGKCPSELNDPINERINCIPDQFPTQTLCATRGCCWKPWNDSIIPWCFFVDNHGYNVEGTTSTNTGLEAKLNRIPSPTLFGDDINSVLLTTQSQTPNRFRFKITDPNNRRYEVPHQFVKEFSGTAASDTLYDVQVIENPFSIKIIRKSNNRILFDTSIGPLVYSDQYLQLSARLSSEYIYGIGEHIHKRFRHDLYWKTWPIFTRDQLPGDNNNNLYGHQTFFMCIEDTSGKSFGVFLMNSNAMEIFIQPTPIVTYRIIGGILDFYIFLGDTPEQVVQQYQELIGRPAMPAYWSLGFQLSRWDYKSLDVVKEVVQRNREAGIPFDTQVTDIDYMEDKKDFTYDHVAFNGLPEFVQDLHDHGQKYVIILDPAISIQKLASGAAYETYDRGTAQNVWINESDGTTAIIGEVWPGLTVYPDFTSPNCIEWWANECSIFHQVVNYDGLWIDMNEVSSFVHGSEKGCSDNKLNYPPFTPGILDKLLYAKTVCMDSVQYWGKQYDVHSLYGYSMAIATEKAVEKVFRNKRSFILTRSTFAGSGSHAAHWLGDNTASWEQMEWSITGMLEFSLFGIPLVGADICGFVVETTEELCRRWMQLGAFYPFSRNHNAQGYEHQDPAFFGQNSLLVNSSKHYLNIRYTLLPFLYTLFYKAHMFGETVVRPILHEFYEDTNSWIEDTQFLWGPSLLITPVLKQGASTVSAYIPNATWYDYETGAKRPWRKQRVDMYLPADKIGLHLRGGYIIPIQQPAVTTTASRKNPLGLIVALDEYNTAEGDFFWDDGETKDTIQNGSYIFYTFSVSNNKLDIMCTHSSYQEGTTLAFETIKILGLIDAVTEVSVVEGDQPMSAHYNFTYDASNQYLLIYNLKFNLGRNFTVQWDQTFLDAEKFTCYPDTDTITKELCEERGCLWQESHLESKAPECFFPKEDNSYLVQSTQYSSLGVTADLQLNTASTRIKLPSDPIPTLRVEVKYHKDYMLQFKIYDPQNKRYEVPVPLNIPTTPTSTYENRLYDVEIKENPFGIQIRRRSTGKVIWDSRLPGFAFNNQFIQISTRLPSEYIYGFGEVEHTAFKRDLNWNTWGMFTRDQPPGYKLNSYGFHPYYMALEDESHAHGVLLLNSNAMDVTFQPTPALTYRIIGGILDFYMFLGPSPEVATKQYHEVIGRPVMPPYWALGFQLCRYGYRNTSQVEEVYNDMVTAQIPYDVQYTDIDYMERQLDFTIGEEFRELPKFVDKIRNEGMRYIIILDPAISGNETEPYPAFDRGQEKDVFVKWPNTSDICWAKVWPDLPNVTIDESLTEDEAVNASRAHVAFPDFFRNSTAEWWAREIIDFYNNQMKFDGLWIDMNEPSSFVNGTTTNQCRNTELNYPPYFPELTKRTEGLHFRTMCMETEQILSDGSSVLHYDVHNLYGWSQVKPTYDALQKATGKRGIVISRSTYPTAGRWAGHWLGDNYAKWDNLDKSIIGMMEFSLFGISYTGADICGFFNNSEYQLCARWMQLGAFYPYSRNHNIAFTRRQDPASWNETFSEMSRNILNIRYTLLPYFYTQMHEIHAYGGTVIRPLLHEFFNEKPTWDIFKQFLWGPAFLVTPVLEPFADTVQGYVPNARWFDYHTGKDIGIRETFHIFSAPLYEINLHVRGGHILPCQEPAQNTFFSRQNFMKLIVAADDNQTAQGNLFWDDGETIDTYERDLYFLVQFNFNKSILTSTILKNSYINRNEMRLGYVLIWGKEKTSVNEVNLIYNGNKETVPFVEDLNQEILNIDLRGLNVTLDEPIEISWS

| Effectiveness in the saccharase inhibition test in vitro (saccharase inhibitor units per g) | Compound |
| --- | --- |
| 38 850 SIU/g | COC1O[C@H](C)[C@@H](N[C@H]2C=C(CO)[C@@H](O)[C@H](O)[C@H]2O)[C@H](O)[C@H]1O (stereo partly shown) |
| 38 850 SIU/g | COC1O[C@H](C)[C@@H](N[C@H]2C[C@H](CO)[C@@H](O)[C@H](O)[C@H]2O)[C@H](O)[C@H]1O (stereo partly shown) [Example 2] |
| 59 829 SIU/g | C[C@H]1O[C@H](O[C@H]2[C@H](O)[C@@H](O)[C@@H](O[C@H]3[C@H](O)[C@@H](O)C(O)O[C@@H]3CO)O[C@@H]2CO)[C@H](O)[C@@H](O)[C@@H]1N[C@H]1C[C@H](CO)[C@@H](O)[C@H](O)[C@H]1O (stereo partly shown) [Example 1] |
| 77 700 SIU/g | C[C@H]1O[C@H](O[C@H]2[C@H](O)[C@@H](O)[C@@H](O[C@H]3[C@H](O)[C@@H](O)C(O)O[C@@H]3CO)O[C@@H]2CO)[C@H](O)[C@@H](O)[C@@H]1N[C@H]1C=C(CO)[C@@H](O)[C@H](O)[C@H]1O (stereo partly shown) [acarbose] |
